# Laboratory results: US8853233B2, “Broad-spectrum anti-cancer treatment based on iminocamptothecin derivatives” (Sigma-Tau Industrie Farmaceutiche Riunite S.p.A., priority 2007, dated 2014)
# What was measured:
# Design in all cases: species or system nude athymic mice
# [1] = tested on: MESO mesothelioma xenograft; test: In vivo antitumoral activity, MESO tumor xenograft; conditions: q4d × 4
# Method: (§1) Exponentially growing tumor cells were injected s.c. into nude athymic mice. The number of tumor cells was previously chosen by a growth curve. […] Animals were housed under a light-dark cycle, keeping temperature and humidity constant. Parameters of the animal rooms were assessed as follows: 22±2° C. temperature, 55±10% relative humidity, about 15-20 filtered air changes/hour and 12 hour circadian cycle of artificial light (7 a.m., 7 p.m.). At request, the environmental conditions were monitored and the data are retained in Animal Housing Archives. Drinking water was supplied ad libitum. Each mouse was offered daily a complete pellet diet (GLP 4RF21, Mucedola) throughout the study. The analytical certificates of animal food and water are retained at Sigma-Tau premises. All animals were weighed before starting the experiment and were subdivided into the different dosage groups. Each cage was identified by a paper tag indicating: cage number, group, date of tumor injection, starting date of treatment, name of the test item, dose and route of administration, date of sacrifice.
# (§2) Tumor growth was followed by biweekly measurements of tumor diameters with a Vernier caliper. Tumor volume (TV, mm^3) was calculated as: [length (mm)×width (mm)^2]/2, where the width and the length are the shortest and the longest diameters of each tumor, respectively.
# (§3) LTS (long term survivors) were considered mice without tumor 90 days upon the tumor injection.
# [2] = tested on: 501Mel melanoma xenograft; test: In vivo antitumoral activity, 501Mel tumor xenograft; conditions: 501Mel xenograft, q4d × 4
# Method: as §1, §2, §3
# [3] = tested on: A431 epidermoid skin ca. xenograft; test: In vivo antitumoral activity, A431 tumor xenograft; conditions: q4d × 4
# Method: as §1, §2, §3
# [4] = tested on: KB squamous oral head and neck carcinoma xenograft; test: In vivo antitumoral activity, KB tumor xenograft; conditions: q4d × 4
# Method: as §1, §2, §3
# [5] = tested on: FaDu squamous pharynx carcinoma xenograft; test: In vivo antitumoral activity, FaDu tumor xenograft
# Method: as §1, §2, §3
# [6] = tested on: A253 epidermoid submaxillary salivary gland carcinoma xenograft; test: In vivo antitumoral activity, A253 tumor xenograft; conditions: q4d × 4
# Method: as §1, §2
# LTS (long term survivors) were considered mice without tumor 90 days upon the tumor injection. […]
# [7] = tested on: HT1376 bladder ca. xenograft; test: In vivo antitumoral activity, HT1376 tumor xenograft; conditions: q4d × 4
# Method: as §1, §2, §3
# [8] = tested on: MiaPaCa2 pancreas ca. xenograft; test: In vivo antitumoral activity, MiaPaCa2 tumor xenograft; conditions: q4d × 4
# Method: as §1, §2, §3
compound,measurement,setting,value
"CC[C@@]1(O)C(=O)OCc2c1cc1n(c2=O)Cc2c-1nc1ccccc1c2/C=N\OCCN [ST1968, 7-(2-amino)ethoxyiminomethylcamptothecin]",CR (complete response),[1]; 30 mg/kg i.v.,2/12
same,LCK (log10 cell kill),[1]; 30 mg/kg i.v.,1.4
same,LTS (long term survivors),[1]; 30 mg/kg i.v.,0/12
same,TVI % (tumor volume inhibition),[1]; 30 mg/kg i.v.,92%
same,CR (complete response),[2]; 20 mg/kg i.v.,0/6
same,LCK (log10 cell kill),[2]; 20 mg/kg i.v.,1.0
same,LTS (long term survivors),[2]; 20 mg/kg i.v.,0/6
same,TVI % (tumor volume inhibition),[2]; 20 mg/kg i.v.,65%
same,CR (complete response),[2]; 30 mg/kg i.v.,0/10
same,LCK (log10 cell kill),[2]; 30 mg/kg i.v.,1.4
same,LTS (long term survivors),[2]; 30 mg/kg i.v.,0/10
same,TVI % (tumor volume inhibition),[2]; 30 mg/kg i.v.,68%
same,CR (complete response),[3]; 30 mg/kg i.v.,12/12
same,LCK (log10 cell kill),[3]; 30 mg/kg i.v.,>>7.7
same,LTS (long term survivors),[3]; 30 mg/kg i.v.,12/12
same,TVI % (tumor volume inhibition),[3]; 30 mg/kg i.v.,100%
same,CR (complete response),[4]; 17.5 mg/kg i.v.,4/8
same,LCK (log10 cell kill),[4]; 17.5 mg/kg i.v.,3.79
same,LTS (long term survivors),[4]; 17.5 mg/kg i.v.,4/8
same,TVI % (tumor volume inhibition),[4]; 17.5 mg/kg i.v.,99%
same,CR (complete response),[4]; 35 mg/kg i.v.,7/7
same,LCK (log10 cell kill),[4]; 35 mg/kg i.v.,>>4.0
same,LTS (long term survivors),[4]; 35 mg/kg i.v.,7/7
same,TVI % (tumor volume inhibition),[4]; 35 mg/kg i.v.,100%
same,CR (complete response),"[5]; 15 mg/kg i.v., q4d × 4",8/8
same,LCK (log10 cell kill),"[5]; 15 mg/kg i.v., q4d × 4",>>3.9
same,LTS (long term survivors),"[5]; 15 mg/kg i.v., q4d × 4",8/8
same,TVI % (tumor volume inhibition),"[5]; 15 mg/kg i.v., q4d × 4",100%
same,CR (complete response),"[5]; 30 mg/kg i.v., q4d × 4",8/8
same,LCK (log10 cell kill),"[5]; 30 mg/kg i.v., q4d × 4",>>3.9
same,LTS (long term survivors),"[5]; 30 mg/kg i.v., q4d × 4",8/8
same,TVI % (tumor volume inhibition),"[5]; 30 mg/kg i.v., q4d × 4",100%
same,CR (complete response),"[5]; 35 mg/kg i.v., q4d × 4",7/7
same,LCK (log10 cell kill),"[5]; 35 mg/kg i.v., q4d × 4",>>3.9
same,LTS (long term survivors),"[5]; 35 mg/kg i.v., q4d × 4",7/7
same,TVI % (tumor volume inhibition),"[5]; 35 mg/kg i.v., q4d × 4",100%
same,CR (complete response),[6]; 15 mg/kg i.v.,0/8
same,LCK (log10 cell kill),[6]; 15 mg/kg i.v.,0.6
same,LTS (long term survivors),[6]; 15 mg/kg i.v.,0/8
same,TVI % (tumor volume inhibition),[6]; 15 mg/kg i.v.,84%
same,CR (complete response),[6]; 30 mg/kg i.v.,0/8
same,LCK (log10 cell kill),[6]; 30 mg/kg i.v.,1.2
same,LTS (long term survivors),[6]; 30 mg/kg i.v.,1/8
same,TVI % (tumor volume inhibition),[6]; 30 mg/kg i.v.,90%
same,CR (complete response),[6]; 35 mg/kg i.v.,0/7
same,LCK (log10 cell kill),[6]; 35 mg/kg i.v.,1.5
same,LTS (long term survivors),[6]; 35 mg/kg i.v.,2/7
same,TVI % (tumor volume inhibition),[6]; 35 mg/kg i.v.,96%
same,CR (complete response),[7]; 30 mg/kg i.v.,1/12
same,LCK (log10 cell kill),[7]; 30 mg/kg i.v.,0.5
same,LTS (long term survivors),[7]; 30 mg/kg i.v.,0/12
same,TVI % (tumor volume inhibition),[7]; 30 mg/kg i.v.,77%
same,CR (complete response),[8]; 17.5 mg/kg i.v.,0/7
same,LCK (log10 cell kill),[8]; 17.5 mg/kg i.v.,1.23
same,LTS (long term survivors),[8]; 17.5 mg/kg i.v.,0/7
same,TVI % (tumor volume inhibition),[8]; 17.5 mg/kg i.v.,75%
same,CR (complete response),[8]; 30 mg/kg i.v.,0/8
same,LCK (log10 cell kill),[8]; 30 mg/kg i.v.,1.67
same,LTS (long term survivors),[8]; 30 mg/kg i.v.,0/8
same,TVI % (tumor volume inhibition),[8]; 30 mg/kg i.v.,89%
N.N.[Cl][Pt][Cl] [cisplatin],CR (complete response),"[5]; 4.7 mg/kg i.v., q7d × 3",1/8
same,LCK (log10 cell kill),"[5]; 4.7 mg/kg i.v., q7d × 3",1.6
same,LTS (long term survivors),"[5]; 4.7 mg/kg i.v., q7d × 3",0/8
same,TVI % (tumor volume inhibition),"[5]; 4.7 mg/kg i.v., q7d × 3",93%
same,CR (complete response),"[5]; 7 mg/kg i.v., q7d × 3",1/8
same,LCK (log10 cell kill),"[5]; 7 mg/kg i.v., q7d × 3",3.9
same,LTS (long term survivors),"[5]; 7 mg/kg i.v., q7d × 3",3/8
same,TVI % (tumor volume inhibition),"[5]; 7 mg/kg i.v., q7d × 3",99%
"CCc1c2c(nc3ccc(OC(=O)N4CCC(N5CCCCC5)CC4)cc13)-c1cc3c(c(=O)n1C2)COC(=O)[C@]3(O)CC [irinotecan, reference compound]",CR (complete response),[1]; 50 mg/kg i.v.,0/12
same,LCK (log10 cell kill),[1]; 50 mg/kg i.v.,0.8
same,LTS (long term survivors),[1]; 50 mg/kg i.v.,0/12
same,CR (complete response),[2]; 50 mg/kg i.v.,0/10
same,LCK (log10 cell kill),[2]; 50 mg/kg i.v.,1.3
same,LTS (long term survivors),[2]; 50 mg/kg i.v.,0/10
same,CR (complete response),[3]; 50 mg/kg i.v.,12/12
same,LCK (log10 cell kill),[3]; 50 mg/kg i.v.,6.8
same,LTS (long term survivors),[3]; 50 mg/kg i.v.,9/12
same,CR (complete response),[4]; 30 mg/kg i.v.,0/7
same,LCK (log10 cell kill),[4]; 30 mg/kg i.v.,1.26
same,LTS (long term survivors),[4]; 30 mg/kg i.v.,0/7
same,CR (complete response),[4]; 60 mg/kg i.v.,0/8
same,LCK (log10 cell kill),[4]; 60 mg/kg i.v.,1.63
same,LTS (long term survivors),[4]; 60 mg/kg i.v.,0/8
same,CR (complete response),"[5]; 30 mg/kg i.v., q4d × 4",8/8
same,LCK (log10 cell kill),"[5]; 30 mg/kg i.v., q4d × 4",>>3.9
same,LTS (long term survivors),"[5]; 30 mg/kg i.v., q4d × 4",8/8
same,CR (complete response),"[5]; 60 mg/kg i.v., q4d × 4",8/8
same,LCK (log10 cell kill),"[5]; 60 mg/kg i.v., q4d × 4",>>3.9
same,LTS (long term survivors),"[5]; 60 mg/kg i.v., q4d × 4",8/8
same,CR (complete response),[6]; 30 mg/kg i.v.,0/8
same,LCK (log10 cell kill),[6]; 30 mg/kg i.v.,0.1
same,LTS (long term survivors),[6]; 30 mg/kg i.v.,0/8
same,CR (complete response),[6]; 60 mg/kg i.v.,0/8
same,LCK (log10 cell kill),[6]; 60 mg/kg i.v.,0.5
same,LTS (long term survivors),[6]; 60 mg/kg i.v.,0/8
same,CR (complete response),[7]; 50 mg/kg i.v.,0/10
same,LCK (log10 cell kill),[7]; 50 mg/kg i.v.,0.2
same,LTS (long term survivors),[7]; 50 mg/kg i.v.,0/10
same,CR (complete response),[8]; 60 mg/kg i.v.,0/7
same,LCK (log10 cell kill),[8]; 60 mg/kg i.v.,1.23
same,LTS (long term survivors),[8]; 60 mg/kg i.v.,0/7
